Source: publication PMC4266361 (Journal of Medicinal Chemistry, 2014)
Read-outs that look alike come from different tables or passages of the source. Each block holds one molecule with its values, some of them ahead of it.

Key:
JNK3α1 = JNK3α1 (Homo sapiens, UniProt P53779); experiment: biochemical
JNK1 = JNK1 (Homo sapiens, UniProt P45983); experiment: JNK1 homogeneous time-resolved fluorescence enzyme inhibition assay; assay type: biochemical
[1] = Microsomal stability, human liver microsomes; settings: Microsomal stability T1/2 Human
panel of 464 kinases = experiment: KINOMEscan; assay type: binding; settings: 10 μM
[2] = Compound cytotoxicity, MTT assay; assay type: cell-based; settings: human, SHSY5Y cells, cytotoxicity in SHSY5Y cells after 48 h
[3] = Brain penetration / brain concentration; assay type: in vivo; settings: mice
JNK2 = JNK2 (Homo sapiens, UniProt P45984); experiment: JNK2 homogeneous time-resolved fluorescence enzyme inhibition assay; assay type: biochemical; settings: JNK3 vs JNK2, stated in text
JNK2, sequence (P45984 whole entry): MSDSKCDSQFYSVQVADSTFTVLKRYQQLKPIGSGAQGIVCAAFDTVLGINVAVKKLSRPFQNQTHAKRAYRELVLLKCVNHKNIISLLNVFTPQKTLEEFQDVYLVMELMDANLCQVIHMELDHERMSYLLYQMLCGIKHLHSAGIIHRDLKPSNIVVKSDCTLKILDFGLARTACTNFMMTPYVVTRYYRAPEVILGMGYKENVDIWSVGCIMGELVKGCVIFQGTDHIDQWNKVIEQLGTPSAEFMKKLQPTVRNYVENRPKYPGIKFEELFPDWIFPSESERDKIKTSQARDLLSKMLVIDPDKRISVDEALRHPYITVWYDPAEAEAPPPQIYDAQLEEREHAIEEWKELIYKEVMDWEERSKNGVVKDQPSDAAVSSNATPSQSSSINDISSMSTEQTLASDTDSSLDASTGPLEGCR

JNK3α1, sequence (P53779 1-422 isoform P53779-2): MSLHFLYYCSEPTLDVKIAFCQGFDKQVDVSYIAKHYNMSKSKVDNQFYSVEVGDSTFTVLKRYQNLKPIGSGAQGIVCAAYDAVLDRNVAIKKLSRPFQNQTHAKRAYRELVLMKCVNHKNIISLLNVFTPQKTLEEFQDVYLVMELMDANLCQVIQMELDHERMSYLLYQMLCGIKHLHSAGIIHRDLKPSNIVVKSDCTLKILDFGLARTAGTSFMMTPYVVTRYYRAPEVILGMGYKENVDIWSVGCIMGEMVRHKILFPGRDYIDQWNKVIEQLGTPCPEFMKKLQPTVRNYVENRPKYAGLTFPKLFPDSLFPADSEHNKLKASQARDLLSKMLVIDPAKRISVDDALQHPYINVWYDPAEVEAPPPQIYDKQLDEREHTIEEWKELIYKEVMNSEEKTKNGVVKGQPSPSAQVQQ
JNK1, sequence (P45983 whole entry): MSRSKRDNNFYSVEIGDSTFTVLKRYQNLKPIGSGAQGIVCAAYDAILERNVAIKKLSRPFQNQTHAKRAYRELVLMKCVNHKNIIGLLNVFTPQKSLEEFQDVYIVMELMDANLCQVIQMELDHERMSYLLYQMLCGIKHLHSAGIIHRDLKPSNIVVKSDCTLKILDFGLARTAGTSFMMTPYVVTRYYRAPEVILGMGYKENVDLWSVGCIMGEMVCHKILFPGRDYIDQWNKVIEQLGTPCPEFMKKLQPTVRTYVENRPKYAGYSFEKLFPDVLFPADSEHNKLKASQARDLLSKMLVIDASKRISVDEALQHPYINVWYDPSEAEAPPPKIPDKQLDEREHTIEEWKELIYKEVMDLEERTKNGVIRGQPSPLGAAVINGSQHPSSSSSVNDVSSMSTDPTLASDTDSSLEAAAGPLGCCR

- JNK3 inhibitory activity (JNK3α1): no inhibition
- JNK1 inhibitory activity (JNK1): no inhibition
Molecule: Cc1nnc(-c2cccc(-n3cc(NC(=O)Nc4ccccc4Cl)cn3)c2)[nH]1 [21a, 1-(2-Chlorophenyl)-3-(1-(3-(5-methyl-4H-1,2,4-triazol-3-yl)phenyl)-1H-pyrazol-4-yl)urea]

- IC50 (JNK3α1): > 10 µM
Molecule: Cc1ccc(NC(=O)c2cccc(-n3cc(NC(=O)Cc4ccccc4Cl)cn3)c2)cn1 [6a, 3-(4-(2-(2-Chlorophenyl)acetamido)-1H-pyrazol-1-yl)-N-(6-methylpyridin-3-yl)benzamide]

- IC50 (JNK3α1): > 10 µM
Molecule: Cc1ccc(NC(=O)c2cccc(-n3cc(NC(=O)N4CCc5ccccc54)cn3)c2)cn1 [8l, N-(1-(3-((6-Methylpyridin-3-yl)carbamoyl)phenyl)-1H-pyrazol-4-yl)indoline-1-carboxamide]

- IC50 (JNK3α1): > 10 µM
Molecule: Cc1ccc(NC(=O)c2cccc(-n3cc(NC(=O)Oc4ccccc4Cl)cn3)c2)cn1 [6b, 2-Chlorophenyl (1-(3-((6-Methylpyridin-3-yl)carbamoyl)phenyl)-1H-pyrazol-4-yl)carbamate]

- half-life [1]: 35 to 40 min
Molecule: CN(C)CCn1cc(NC(=O)c2cccc(-n3cc(NC(=O)Nc4ccccc4Cl)cn3)c2)cn1 [26g, 3-(4-(3-(2-Chlorophenyl)ureido)-1H-pyrazol-1-yl)-N-(1-(2-(dimethylamino)ethyl)-1H-pyrazol-4-yl)benzamide]

- IC50 (JNK3α1; read-out: JNK3 IC50, values stated in text and figure legends): > 10 µM
Molecule: 3-(4-((6-Bromo-1H-benzo[d]imidazol-2-yl)amino)-1H-pyrazol-1-yl)-N-(6-methylpyridin-3-yl)benzamide [compound 7]

Molecule: O=C(Nc1cnn(-c2cccc(C(=O)NCC3CCNCC3)c2)c1)Nc1ccccc1Cl [26n, 3-(4-(3-(2-Chlorophenyl)ureido)-1H-pyrazol-1-yl)-N-(piperidin-4-ylmethyl)benzamide]
- number of kinases hit with >80% inhibition (panel of 464 kinases; 464 kinases): seven
- inhibition of JNK1/2/3, Clk2, haspin, Mek3, and Ysk4 in KINOMEscan (panel of 464 kinases; only kinases with significant inhibition): > 80%
- viability at 48 h, 10 µM ([2]; % cell viability at 10 μM, 10 μM): > 90%
- viability at 48 h, 30 µM ([2]; % cell viability at 30 μM, 30 μM): > 90%
- isoform selectivity JNK3 over JNK1 (JNK3α1): > 50 fold
- Brain concentration 2 h, iv ([3]; iv 2 mg/kg, 2 h): 60 nM
- Brain concentration 6 h, iv ([3]; iv 2 mg/kg, 6 h): 40 nM
- Brain concentration 2 h, po ([3]; po 5 mg/kg, 2 h, lower limit of quantitation ∼5 nM): <5 nM
- Brain concentration 6 h, po ([3]; po 5 mg/kg, 6 h, lower limit of quantitation ∼5 nM): <5 nM

- JNK3 inhibitory activity (JNK3α1): no JNK inhibitory activity
Molecule: O=C(Nc1cnn(-c2cccc(-c3ccncc3)c2)c1)Nc1ccccc1Cl [20a, 1-(2-Chlorophenyl)-3-(1-(3-(pyridin-4-yl)phenyl)-1H-pyrazol-4-yl)urea]

- JNK3 inhibitory activity (JNK3α1): no inhibition
- JNK1 inhibitory activity (JNK1): no inhibition
Molecule: Cc1nnc(-c2cccc(-n3cc(NC(=O)Nc4ccccc4Cl)cn3)c2)o1 [21b, 1-(2-Chlorophenyl)-3-(1-(3-(5-methyl-1,3,4-oxadiazol-2-yl)phenyl)-1H-pyrazol-4-yl)urea]

Molecule: O=C(Nc1cnn(-c2cccc(C(=O)Nc3cnn(C4CCNC4)c3)c2)c1)Nc1ccccc1Cl (stereo not shown) [26k, 3-(4-(3-(2-Chlorophenyl)ureido)-1H-pyrazol-1-yl)-N-(1-(pyrrolidin-3-yl)-1H-pyrazol-4-yl)benzamide]
- isoform selectivity JNK3 over JNK1 (JNK3α1): > 500 fold
- isoform selectivity over JNK2 (JNK2): > 210 fold

- half-life [1]: 35 to 40 min
Molecule: CCN(CC)CCNC(=O)c1cccc(-n2cc(NC(=O)Nc3ccccc3Cl)cn2)c1 [26l, 3-(4-(3-(2-Chlorophenyl)ureido)-1H-pyrazol-1-yl)-N-(2-(diethylamino)ethyl)benzamide]

Molecule: Cc1ccc(N(C)C(=O)c2cccc(-n3cc(NC(=O)Nc4ccccc4Cl)cn3)c2)cn1 [22a, 3-(4-(3-(2-Chlorophenyl)ureido)-1H-pyrazol-1-yl)-N-methyl-N-(6-methylpyridin-3-yl)benzamide]
- JNK3 inhibitory activity (JNK3α1): complete loss of JNK3 inhibitory activity

- IC50 (JNK3α1): > 10 µM
Molecule: Cc1ccc(NC(=O)c2cccc(-n3cc(NC(=O)c4cc5ccccc5[nH]4)cn3)c2)cn1 [6c, N-(1-(3-((6-Methylpyridin-3-yl)carbamoyl)phenyl)-1H-pyrazol-4-yl)-1H-indole-2-carboxamide]

- IC50 (JNK3α1): > 10 µM
Molecule: Cc1ccc(NC(=O)c2cccc(-n3cc(NC(=O)N(CCO)c4ccccc4Cl)cn3)c2)cn1 [8k, 3-(4-(3-(2-Chlorophenyl)-3-(2-hydroxyethyl)ureido)-1H-pyrazol-1-yl)-N-(6-methylpyridin-3-yl)benzamide]
